Values joined by “and” are separate entries in the source; they are usually repeats but may differ in a detail not shown here. Equal entries are not always repeated.
How the values were obtained:
[1] = molecular target: DCN1 (Homo sapiens, UniProt Q96GG9); test: High-resolution LC-tandem mass spectrometry of tryptic peptides; conditions: for Modifications (DI-548 adduct on DCN1 tryptic peptide): B2 Sequest HT (DI-548) sample, confidence High, not found in Apo sample
Procedure: Equal amounts of proteins (10 μg) were denatured in 8 M urea. Cysteines were reduced with 10 mM DTT at 45 °C for 30 min and alkylated using 50 mM chloroacetamide (RT, 30 min). Upon dilution of urea to <1.2 M, digestion with 250 ng of sequencing grade, modified trypsin (Promega) was carried out overnight at 37 °C. Reaction was terminated by acidification with trifluoroacetic acid (0.1% v/v) and peptides were purified using SepPak C18 cartridge following the manufacturer’s protocol (Waters Corp). An aliquot of the resulting peptides (~2 µg) was resolved on a nanocapillary reverse phase column (Acclaim PepMap C18, 2 μm, 50 cm, Thermo Fisher Scientific) using 0.1% formic acid/acetonitrile gradient at 300 nL/min and directly introduced in to Q Exactive HF mass spectrometer (Thermo Fisher Scientific, San Jose, CA). MS1 scans were acquired at 60 K resolution (AGC target = 3e^6, max IT = 50 ms). Data-dependent high-energy C-trap dissociation MS/MS spectra were acquired for the 20 most abundant ions (Top20) following each MS1 scan (15 K resolution; AGC target = 1e^5; relative CE ~ 28%). Proteins were identified by searching the data against restricted database containing DCN1 protein sequence and common contaminants using Sequest HT (Proteome Discoverer v2.4, Thermo Fisher Scientific). Search parameters included MS1 mass tolerance of 10 ppm and fragment tolerance of 0.02 Da; two missed cleavages were allowed; carbamidomethylation (+57.02146 Da) and DI-1548 adduct (+510.2665 Da) of cysteine, and oxidation of methionine, deamidation of asparagine and glutamine were considered as potential modifications. False discovery rate (FDR) was determined using target decoy validator and proteins/peptides with an FDR of ≤1% were retained for further analysis. The DI-1548 modified peptide PSMs were manually verified.

[2] = tested on: HCT116 cells; test: Cell viability assay (WST-8), HCT116; assay type: cell-based, human; conditions: Homo sapiens, HCT-116; 72 h; cell line assigned from panel order; read-out: EC50, cell growth inhibition
Method in brief: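 Cells (2000–3000 per well) were treated with serial dilutions of DCN1 inhibitors for 3 days, then incubated 1–3 h with WST-8 and absorbance read at 450 nm. Growth inhibition was sample-to-control absorbance ratio, with EC50 from fitted curves.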

[3] = tested on: HO-1 mRNA; test: RT-PCR, HO-1 mRNA in THLE2 cells; assay type: cell-based, human; conditions: for HO-1 mRNA level relative to control: THLE2, 10 nM, replicates
Procedure: Supplementary Figure 23. DI‐1859 increases the mRNA level of NRF2 ta rge te d genes NQO1 and
HO‐1. THLE2 cells we re treated with DI‐1859 at 10 nM fo r 4, 8 and 24 h. Tr e a t e d cells were
harvested and the mRNA level of HO‐1 and NQO1 we re exa m i n e d by RT‐PCR assay. The probes
Scientific (Ann Arbor, MI). Data are presented as mean values with n = 2 independent biological […]

[4] = tested on: APAP-induced liver injury; test: APAP-induced liver injury: ROS assay in liver tissue; assay type: in vivo, mouse
Procedure: The in vivo studies were performed under animal protocols (PRO00007499) and (PRO00006638) approved by the Institutional Animal Care & Use Committee of the University of Michigan, in accordance with the recommendations in the Guide for the Care and Use of Laboratory Animals of the National Institutes of Health. C57BL/6 WT mice (~8 weeks, male, normal chow) were purchased from the Jackson Laboratory and randomly divided into eight groups (8–9 mice per group) treated (IP) as follows: phosphate-buffered saline vehicle once per day for 3 days (G1), APAP alone a single dose at 400 mg/kg on day 1 (G2), DI-1859 alone 25 mg/kg once per day for 3 days (G3), DI-1859 alone 50 mg/kg once per day for 3 days (G4), pretreatment (1 day before the APAP administration) with DI-1859 at 25 mg/kg once per day for 3 days followed with APAP at 400 mg/kg on day (G5), pretreatment (1 day before the APAP administration) with DI-1859 at 50 mg/kg once per day for 3 days followed with APAP at 400 mg/kg on day (G6), APAP a single dose at 400 mg/kg (3 h before the first DI-1859 administration) followed with DI-1859 at 25 mg/Kg once per day for 3 days (G7), and APAP a single dose at 400 mg/kg (3 h before the first DI-1859 administration) followed with DI-1859 at 50 mg/Kg once per day for 3 days (G8).
To induce acute liver injury, animals received PBS or APAP (400 mg/kg, sigma, A7085) through I.P. injection at 12 p.m. and were sacrificed 48 h afterward. To examine the protective effect of DI-1859 (groups 5 and 6), animals were I.P. injected with compound for 3 consecutive days (9 a.m. on each day, starting 1 day before APAP administration). To examine the restorative effect of DI-1859 (groups 7 and 8), animals were I.P. injected with compound 3 h after APAP administration followed by two additional treatments (9 a.m. on the next 2 days). Body weight and blood glucose level measurement, along with blood sample collection, were performed at 12 p.m. on each day.
Liver samples were homogenized in a lysis buffer and mixed with a dichlorofluorescein diacetate fluorescent probe (DCF, Sigma, D6883) to a final probe concentration of 5 µM for 1 h at 37 °C. DCF fluorescence was measured using a BioTek Synergy 2 Multi-Mode Microplate Reader (485 nm excitation and 527 nm emission).

[5] = G3: DI-1859 25 mg/kg, qD for 3 days
[6] = G4: DI-1859 50 mg/kg, qD for 3 days
[7] = G5: DI-1859 25 mg/kg qD for 3 days, APAP 400 mg/kg 3 h after the second dose
[8] = G6: DI-1859 50 mg/kg qD for 3 days, APAP 400 mg/kg 3 h after the second dose
[9] = G7: APAP 400 mg/kg, then DI-1859 25 mg/kg 3 h after APAP and on day 2 and 3
[10] = G8: APAP 400 mg/kg, then DI-1859 50 mg/kg 3 h after APAP and on day 2 and 3

Sequence of DCN1 (Q96GG9 58-259 limits assumed): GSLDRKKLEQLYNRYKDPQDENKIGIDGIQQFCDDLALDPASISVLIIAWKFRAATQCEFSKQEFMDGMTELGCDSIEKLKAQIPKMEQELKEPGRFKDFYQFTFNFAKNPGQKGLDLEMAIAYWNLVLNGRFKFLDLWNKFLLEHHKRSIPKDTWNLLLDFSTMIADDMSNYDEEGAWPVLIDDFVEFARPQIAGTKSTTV

C=C(CN1CCOCC1)C(=O)NC[C@@H](NC(=O)[C@H](Cc1nc2ccc(C(C)C)cc2s1)NC(=O)CC)C1CCCCC1 [DI-1548]
Modifications (DI-548 adduct on DCN1 tryptic peptide) ([1]; peptide [R].AATQCEFSK.[Q], DCN_1 [77-85]): 1xDI-548_Haibin [C5]
Modifications (DI-548 adduct on DCN1 tryptic peptide) ([1]; peptide [R].AATQCEFSKQEFMDGMTELGCDSIEK.[L], DCN_1 [77-102], 1xCarbamidomethyl [C21] and 1xDeamidated [Q4]): 1xCarbamidomethyl [C21]; 1xDeamidated [Q4]; 1xDI-548_Haibin [C5]
Modifications (DI-548 adduct on DCN1 tryptic peptide) ([1]; peptide [R].AATQCEFSKQEFMDGMTELGCDSIEK.[L], DCN_1 [77-102], 1xCarbamidomethyl [C21]): 1xCarbamidomethyl [C21]; 1xDI-548_Haibin [C5]
residue of DCN1 modified ([1]; tryptic digested peptides): forms covalent bond with Cys115
EC50 [2]: > 1000 nM

C=C(CN(C)C)C(=O)NC[C@@H](NC(=O)[C@H](Cc1nc2ccc(C(C)C)cc2s1)NC(=O)CC)C1CCCCC1 [DI-1859]
HO-1 mRNA level relative to control ([3]; 4 h (time from row order and b199)): 1.5 and 1.6
HO-1 mRNA level relative to control ([3]; 8 h (time from row order and b199)): 1.7 and 1.9
HO-1 mRNA level relative to control ([3]; 24 h (time from row order and b199)): 2.4 and 3.9
increase of HO1 mRNA level ([3]; THLE2 liver cells, qRT-PCR): 3 folds
ROS level in mouse liver tissue, mean [4, 5]: 7.034 A.U./ug
ROS level normalised to the mean of G1 (vehicle), mean [4, 5]: 0.9296
ROS level in mouse liver tissue, mean [4, 6]: 7.229 A.U./ug
ROS level normalised to the mean of G1 (vehicle), mean [4, 6]: 0.9554
ROS level in mouse liver tissue, mean [4, 7]: 10.9296 A.U./ug
ROS level normalised to the mean of G1 (vehicle), mean [4, 7]: 1.445
ROS level in mouse liver tissue, mean [4, 8]: 8.337 A.U./ug
ROS level normalised to the mean of G1 (vehicle), mean [4, 8]: 1.102
ROS level in mouse liver tissue, mean [4, 9]: 10.4847 A.U./ug
ROS level normalised to the mean of G1 (vehicle), mean [4, 9]: 1.3857
ROS level in mouse liver tissue, mean [4, 10]: 10.3541 A.U./ug
ROS level normalised to the mean of G1 (vehicle), mean [4, 10]: 1.368
effect on the level of reactive oxygen species (ROS) ([4]; prevention and treatment settings): effectively reduced the level of reactive oxygen species
